From ChEMBL document CHEMBL1201862, “PubChem BioAssay data set” (2004)
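Tested at 5 concentrations; 48 h exposure; 96-well plates; endpoints linearly interpolated, else capped at highest concentration. GI50: concentration for 50% inhibition of growth.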 The source made the active and inactive calls. No stated cut-off is given here; in the data, active = GI50 up to about 1.1 µM and inactive = higher.

Assays:
Assay in all cases: NCI-60 cell line screen, 48 h
[1] = test system: 786-0
[2] = test system: A498
[3] = test system: A549
[4] = test system: ACHN
[5] = test system: CAKI-1
[6] = test system: CCRF-CEM
[7] = test system: COLO 205
[8] = test system: DLD-1
[9] = test system: DMS-273
[10] = test system: EKVX
[11] = test system: HCC 2998
[12] = test system: HCT-116
[13] = test system: HCT-15
[14] = test system: HL-60
[15] = test system: HOP-18
[16] = test system: HOP-62
[17] = test system: HT-29
[18] = test system: IGROV-1
[19] = test system: K562
[20] = test system: KM-20L2
[21] = test system: KM12
[22] = test system: LOX IMVI
[23] = test system: LXFL 529
[24] = test system: M14
[25] = test system: M19-MEL
[26] = test system: MOLT-4
[27] = test system: Malme-3M
[28] = test system: NCI-H226
[29] = test system: NCI-H23
[30] = test system: NCI-H460
[31] = test system: NCI-H522
[32] = test system: OVCAR-3
[33] = test system: OVCAR-4
[34] = test system: OVCAR-5
[35] = test system: OVCAR-8
[36] = test system: RPMI-8226
[37] = test system: RXF 393
[38] = test system: SF-268
[39] = test system: SF-295
[40] = test system: SF-539
[41] = test system: SK-MEL-28
[42] = test system: SK-MEL-2
[43] = test system: SK-MEL-5
[44] = test system: SK-OV-3
[45] = test system: SN12C
[46] = test system: SNB-19
[47] = test system: SNB-75
[48] = test system: SNB-78
[49] = test system: SW-620
[50] = test system: TK-10
[51] = test system: U-251
[52] = test system: UACC-257
[53] = test system: UO-31
[54] = test system: DMS-114
[55] = test system: HOP-92
[56] = test system: SR
[57] = test system: UACC-62

O=C(CSc1nnc(Cc2ccccc2)o1)Nc1cccc(Cl)c1
GI50 [1]: 96.8 µM (inactive) | GI50 [2]: > 100 µM (inactive) | GI50 [3]: > 100 µM (inactive) | GI50 [4]: 46.9 µM (inactive) | GI50 [5]: 92.5 µM (inactive) | GI50 [6]: 71 µM (inactive) | GI50 [7]: > 100 µM (inactive) | GI50 [8]: > 100 µM (inactive) | GI50 [9]: 83 µM (inactive) | GI50 [10]: > 100 µM (inactive) | GI50 [11]: 96.6 µM (inactive) | GI50 [12]: > 100 µM (inactive) | GI50 [13]: 98.4 µM | GI50 [14]: > 100 µM (inactive) | GI50 [15]: 87.1 µM (inactive) | GI50 [16]: > 100 µM (inactive) | GI50 [17]: 66.2 µM (inactive) | GI50 [18]: > 100 µM (inactive) | GI50 [19]: 46.6 µM (inactive) | GI50 [20]: > 100 µM (inactive) | GI50 [21]: > 100 µM (inactive) | GI50 [22]: 64.4 µM (inactive) | GI50 [23]: 44.1 µM (inactive) | GI50 [24]: 69 µM (inactive) | GI50 [25]: > 100 µM (inactive) | GI50 [26]: 79.3 µM (inactive) | GI50 [27]: 63.7 µM (inactive) | GI50 [28]: > 100 µM (inactive) | GI50 [29]: 66.2 µM (inactive) | GI50 [30]: > 100 µM (inactive) | GI50 [31]: 40.9 µM (inactive) | GI50 [32]: 31.9 µM (inactive) | GI50 [33]: 51.2 µM (inactive) | GI50 [34]: > 100 µM (inactive) | GI50 [35]: > 100 µM (inactive) | GI50 [36]: 72.4 µM (inactive) | GI50 [37]: > 100 µM (inactive) | GI50 [38]: > 100 µM (inactive) | GI50 [39]: 68.7 µM (inactive) | GI50 [40]: > 100 µM (inactive) | GI50 [41]: > 100 µM (inactive) | GI50 [42]: 70.8 µM (inactive) | GI50 [43]: 76.7 µM (inactive) | GI50 [44]: > 100 µM (inactive) | GI50 [45]: 97.1 µM (inactive) | GI50 [46]: > 100 µM (inactive) | GI50 [47]: 25.9 µM (inactive) | GI50 [48]: > 100 µM (inactive) | GI50 [49]: > 100 µM (inactive) | GI50 [50]: > 100 µM (inactive) | GI50 [51]: > 100 µM (inactive) | GI50 [52]: > 100 µM (inactive) | GI50 [53]: > 100 µM (inactive)

Cc1ccc(NC(=O)CC2SC(Nc3ccc(Cl)cc3)=NC2=O)cc1C (stereo not given)
GI50 [1]: 17.8 µM (inactive) | GI50 [2]: 23 µM (inactive) | GI50 [3]: 18.2 µM (inactive) | GI50 [4]: 16.1 µM (inactive) | GI50 [5]: 21.2 µM (inactive) | GI50 [6]: 3.24 µM (inactive) | GI50 [7]: 13.2 µM (inactive) | GI50 [8]: 18.9 µM (inactive) | GI50 [54]: 21 µM (inactive) | GI50 [9]: 19.7 µM (inactive) | GI50 [10]: 17.5 µM (inactive) | GI50 [11]: 18.6 µM (inactive) | GI50 [12]: 18.1 µM (inactive) | GI50 [13]: 15.2 µM | GI50 [14]: 3.12 µM (inactive) | GI50 [15]: 18.5 µM (inactive) | GI50 [16]: > 100 µM (inactive) | GI50 [55]: 14.4 µM (inactive) | GI50 [17]: 18.2 µM (inactive) | GI50 [18]: > 46.3 µM (inactive) | GI50 [19]: 3.75 µM (inactive) | GI50 [20]: 19.1 µM (inactive) | GI50 [21]: 19.9 µM (inactive) | GI50 [22]: 19.4 µM (inactive) | GI50 [23]: 19.5 µM (inactive) | GI50 [24]: 16.9 µM (inactive) | GI50 [25]: 17.7 µM (inactive) | GI50 [26]: 2.38 µM (inactive) | GI50 [27]: 18.5 µM (inactive) | GI50 [28]: > 47.2 µM (inactive) | GI50 [29]: 19 µM (inactive) | GI50 [30]: 13.5 µM (inactive) | GI50 [31]: 7.85 µM (inactive) | GI50 [32]: 18.9 µM (inactive) | GI50 [33]: 20.2 µM (inactive) | GI50 [34]: 19 µM (inactive) | GI50 [35]: 18 µM (inactive) | GI50 [36]: 6.47 µM (inactive) | GI50 [37]: 17.1 µM (inactive) | GI50 [38]: 18.3 µM (inactive) | GI50 [39]: > 44 µM (inactive) | GI50 [40]: 20.8 µM (inactive) | GI50 [41]: 19.5 µM (inactive) | GI50 [42]: 12.7 µM (inactive) | GI50 [43]: 20.3 µM (inactive) | GI50 [44]: > 49 µM (inactive) | GI50 [45]: 17.9 µM (inactive) | GI50 [46]: > 78.3 µM (inactive) | GI50 [47]: 17.7 µM (inactive) | GI50 [48]: 21.1 µM (inactive) | GI50 [56]: 6.59 µM (inactive) | GI50 [49]: 7.08 µM (inactive) | GI50 [50]: 17.3 µM (inactive) | GI50 [51]: 18.5 µM (inactive) | GI50 [52]: 15.9 µM (inactive) | GI50 [57]: 18.3 µM (inactive) | GI50 [53]: 18.6 µM (inactive)
